Reference: patent US20090325952A1, “PYRAZOLO[3,4-B]PYRIDINE COMPOUNDS, AND THEIR USE AS PDE4 INHIBITORS” (Glaxo Group Limited, priority 2006, published 2009)

Assays:
[1] = target: T1, PDE4B (human recombinant) (Homo sapiens, UniProt Q07343); test: Inhibition of PDE4B activity (FP and/or SPA assay); format: biochemical; settings: generally FP assay; one reading or average of n readings; read-out: PDE4B pIC50 (generally in FP assay) (±about 0.5) (converted)
T1 construct: made in house; host or cells: Saccharomyces cerevisiae strain GL62 (PDE-deficient yeast)
T1 sequence (Q07343 1-564 isoform Q07343-2): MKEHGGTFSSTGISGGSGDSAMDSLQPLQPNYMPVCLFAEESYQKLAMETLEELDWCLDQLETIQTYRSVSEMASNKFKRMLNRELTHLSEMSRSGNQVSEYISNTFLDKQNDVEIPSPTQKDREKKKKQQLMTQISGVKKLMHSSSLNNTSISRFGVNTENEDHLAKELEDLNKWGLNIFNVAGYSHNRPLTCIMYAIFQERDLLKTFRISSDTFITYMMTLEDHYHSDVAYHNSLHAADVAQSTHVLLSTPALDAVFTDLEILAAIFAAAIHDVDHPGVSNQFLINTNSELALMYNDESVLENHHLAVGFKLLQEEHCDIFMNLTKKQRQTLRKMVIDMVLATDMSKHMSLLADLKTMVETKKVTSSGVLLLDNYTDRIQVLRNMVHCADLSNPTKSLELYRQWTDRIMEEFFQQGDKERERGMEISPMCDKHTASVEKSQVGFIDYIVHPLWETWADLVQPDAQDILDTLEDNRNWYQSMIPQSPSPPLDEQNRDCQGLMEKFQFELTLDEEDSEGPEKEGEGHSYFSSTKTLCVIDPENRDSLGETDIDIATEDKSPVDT
Excerpt: Human recombinant PDE4B, in particular the 2B splice variant thereof (HSPDE4B2B), is disclosed in WO 94/20079 and also M. M. McLaughlin et al., “A low Km, rolipram-sensitive, cAMP-specific phosphodiesterase from human brain: cloning and expression of cDNA, biochemical characterisation of recombinant protein, and tissue distribution of mRNA”, J. Biol. Chem., 1993, 268, 6470-6476. For example, in Example 1 of WO 94/20079, human recombinant PDE4B is described as being expressed in the PDE-deficient yeast Saccharomyces cerevisiae strain GL62, e.g. after induction by addition of 150 uM CuSO4, and 100,000×g supernatant fractions of yeast cell lysates are described for use in the harvesting of PDE4B enzyme.
The ability of compounds to inhibit catalytic activity at PDE4B or 4D (human recombinant), PDE3 (from bovine aorta), PDE5 (human recombinant) or PDE6 (from bovine retina) can optionally be determined by Scintillation Proximity Assay (SPA) in a 96-well format.
Test compounds (as a solution in DMSO, suitably about 2 microlitre (ul) volume of DMSO solution) are preincubated at ambient temperature (room temperature, e.g. 19-23° C.) in Wallac Isoplates (code 1450-514) with PDE enzyme in 50 mM Tris-HCl buffer pH 7.5, 8.3 mM MgCl2, 1.7 mM EGTA, 0.05% (w/v) bovine serum albumin for 10-30 minutes (usually 30 minutes). The enzyme concentration is adjusted so that no more than 20% hydrolysis of the substrate defined below occurs in control wells without compound, during the incubation. For the PDE3, PDE4B and PDE4D assays, [5′,8-^3H]Adenosine 3′,5′-cyclic phosphate (Amersham Pharmacia Biotech, code TRK.559; or Amersham Biosciences UK Ltd, Pollards Wood, Chalfont St Giles, Buckinghamshire HP8 4SP, UK) is added to give 0.05uCi per well and about 10 nM final concentration. For the PDE5 and PDE6 assays, [8^−3H]Guanosine 3′,5′-cyclic phosphate (Amersham Pharmacia Biotech, code TRK.392) is added to give 0.05uCi per well and about 36 nM final concentration. Plates containing assay mixture, suitably approx. 100 ul volume of assay mixture, are mixed on an orbital shaker for 5 minutes and incubated at ambient temperature for 1 hour. Phosphodiesterase SPA beads (Amersham Pharmacia Biotech, code RPNQ 0150) are added (about 1 mg per well) to terminate the assay. Plates are sealed and shaken and allowed to stand at ambient temperature for 35 minutes to 1 hour (suitably 35 minutes) to allow the beads to settle. Bound radioactive product is measured using a WALLAC TRILUX 1450 Microbeta scintillation counter. For inhibition curves, 10 concentrations (e.g. 1.5 nM-30 uM) of each compound are assayed. Curves are analysed using ActivityBase and XLfit (ID Business Solutions Limited, 2 Ocean Court, Surrey Research Park, Guildford, Surrey GU2 7QB, United Kingdom) Results are expressed as pIC50 values.
The ability of compounds to inhibit catalytic activity at PDE4B (human recombinant) or PDE4D (human recombinant) can optionally be determined by IMAP Fluorescence Polarisation (FP) assay (IMAP Explorer kit, available from Molecular Devices Corporation, Sunnydale, Calif., USA; Molecular Devices code: R8062) in 384-well format.
The IMAP FP assay is able to measure PDE activity in an homogenous, non-radioactive assay format. The FP assay uses the ability of immobilised trivalent metal cations, coated onto nanoparticles (tiny beads), to bind the phosphate group of Fl-AMP that is produced on the hydrolysis of fluorescein-labelled (Fl) cyclic adenosine mono-phosphate (Fl-cAMP) to the non-cyclic Fl-AMP form. […] Binding of Fl-AMP product to the beads (coated with the immobilised trivalent cations) slows the rotation of the bound Fl-AMP and leads to an increase in the fluorescence polarisation ratio of parallel to perpendicular light. Inhibition of the PDE reduces/inhibits this signal increase. […]

[2] = test system: TNF-α (TNF-alpha) production in human PBMC (peripheral blood mononuclear cells); test: Inhibition of TNF-alpha production in human PBMC assay (MSD technology); format: cell-based; settings: Homo sapiens, PBMC, LPS stimulated, measured and/or mean of n measurements, read-out: PBMC pIC50 (MSD assay), inhibition of TNF-α production (converted)
Description: A 96-well plate (96 MicroWell™ Plates Nunclon™Δ-High Flange Design, Fisher Scientific UK, Bishop Meadow Road, Loughborough LE 11 5 RG, Leicestershire, UK) is prepared by initially adding to column 1 ca. 10 mM of test compound dissolved in DMSO. […] The compound is further diluted with DMSO into columns 2 to 9 by 8 successive 3-fold dilutions using the Biomek® FX Laboratory Automation Workstation (Beckman Coulter, Inc., 4300 N. Harbor Boulevard, P.O. Box 3100, Fullerton, Calif. 92834-3100, USA). Column 10 is used as a DMSO negative control (High Signal, 0% response), whilst column 11, which contains 10 mM of the PDE4 inhibitor roflumilast, is used as a positive control (Low Signal, 100% response). About 1 μl (about 1 ul) of compound is transferred to the compound plate using the Biomek® FX.
PBMC cells (peripheral blood mononuclear cells) are prepared from heparinised human blood (using 1% v/v Heparin Sodium 10001 U/ml Endotoxin Free, Leo Laboratories Ltd., Cashel Road, Dublin 12. Ireland, Cat No: PL0043/0149) from normal volunteers using the Accuspin™ System-Histopaque®-1077 essentially (Sigma-Aldrich Company Ltd., The Old Brickyard New Rd, Gillingham, Dorset SP8 4XT, UK). About 20 ml of blood is overlaid onto 15 ml Histopaque® in Accuspin™ tubes. The tube is then centrifuged at about 800 g for ca. 20 minutes. The cells are collected from the interface, washed by centrifugation (ca. 1300 g, ca. 10 minutes) and resuspended in RPMI1640 medium (Low endotoxin RPMI1640 medium, Cat No: 31870-025, Invitrogen Corporation Invitrogen Ltd, 3 Fountain Drive, Inchinnan Business Park, Paisley PA4 9RF, UK) containing 10% foetal calf serum, 1% L-glutamine (Invitrogen Corporation, Cat No: 25030024) and 1% penicillin/streptomycin (Invitrogen Corporation, Cat No: 15140-122). Viable cells are counted by trypan blue staining and diluted to 1×10^6 viable cells/ml. About 50 μl (about 50 ul) of diluted cells and about 75 μl (about 75 ul) of LPS (ca. 1 ng/ml final; Sigma Cat No: L-6386) are added to the compound plate, which is then incubated at 37° C., 5% CO2, for 20 hours.
The supernatant is removed and the concentrations of TNF-α are determined by electrochemiluminescence assay using the Meso Scale Discovery (MSD) technology (Meso Scale Discovery, 9238 Gaither Road, Gaithersburg, Md. 20877, USA). See the “TNF-α (TNF-alpha) MSD Assay” described below for typical details.
For the following Examples, which are compounds of formula (I) or salts thereof, and generally when using the one of the above assays, or a generally similar or generally analogous assay, the measured and/or mean pIC50 values for inhibition of TNF-α (TNF-alpha) production in PBMCs are generally as follows (subject to a possibly-large variability or error):
Using the Biomek FX, 25 μl (25 ul) of MSD Human Serum Cytokine Assay Diluent (Meso Scale Discovery, 9238 Gaither Road, Gaithersburg, Md. 20877) is added to a 96-well High-Bind MSD plate pre-coated with anti-hTNF alpha capture antibody (MA6000) and then incubated for 24 hours at 4° C. to prevent non-specific binding. About 20 μl (ul) of supernatant from the PBMC plate or about 40 μl (ul) of supernatant from the whole blood (WB) plate are then transferred from columns 1-11 to columns 1-11 of the MSD plate using the Biomek FX. About 20 μl (ul) of TNF-α standard (Cat No. 210-TA; R&D Systems Inc., 614 McKinley Place NE, Minneapolis, Minn. 55413, USA) are added to column 12 of the MSD plate to generate a standard calibration curve (about 0 to 30000 pg/ml final).
For the Whole Blood assay, plates are washed after 2 hours shaking with a Skanwasher 300 version B (Skatron Instruments AS. PO Box 8, N-3401 Lier, Norway). About 40 μl (ul) of diluted sulfo-TAG antibody (ca. […] final) is added, the plates are shaken at room temperature for 1 hours, and the plates washed again as above. About 150 μl (ul) of Read Buffer T (2×) is added to the plates, which are then read on a MSD Sector 6000. […]

IC50 [1]: ~0.0794 nM
Compound: CCc1nc2c(cnn2CC)c(NC2CCN(C(N)=O)CC2)c1CNC(=O)c1ccc(CCCCOCCCCN2CCOCC2)cc1 [Example 23, 4-({1,6-diethyl-5-[({[4-(4-{[4-(4-morpholinyl)butyl]oxy}butyl)phenyl]carbonyl}amino)methyl]-1H-pyrazolo[3,4-b]pyridin-4-yl}amino)-1-piperidinecarboxamide]
IC50 [2]: ~0.631 nM
